From US20220160723A1, “PHARMACOLOGICAL MITIGATION OF LATE-STAGE TOXEMIA” (priority 2019, published 2022)
“Also recorded” adds a separate entry of the source. Like-named read-outs stand apart in the source and are kept apart here.

Columns and labels:
[1] = test system: ET-induced footpad swelling (edema); assay: Mouse footpad swelling (edema) assay after ET injection; format: in vivo, mice; details: for protection against ET-induced footpad swelling (edema): in vivo mouse model, pre-treated mice, summary statement; for footpad swelling (edema) following ET injection: mice, 0.15 μg ET/paw (FIG. 5)
HBMEC monolayer = assay: Transwell monolayer permeability (Evans blue dye diffusion); format: cell-based, human; details: for ET induced disruption of monolayer integrity: HBMEC in transwell inserts, ET 250 ng/ml, 24 h, inhibitor 50 μM (FIG. 2E, 3G)
Rac1 = assay: Rac1-GTP pull-down with PAK-Beads and western blot; format: cell-based, human; details: HBMEC, ET 250 ng/ml
Procedure: FIGS. 2A-2E show ET induced actin rearrangement is dependent on Rac1 activation. […] Whole cell lysates were incubated with PAK-Beads, which specifically bind to GTP-bound Rac1. Bead bound Rac1-GTP and total Rac1 levels in cell lysate were determined by western blot with anti-Rac1 antibody. ET induced significant increase in Rac1-GTP (i.e. active Rac1) levels (see FIG. 2B). […] Cells were fixed and stained with cell mask green to visualize cytoplasm. Cell area was quantified from 8 wells for each treatment («-number of cells) using automated image analysis software. […] MRMEC were grown to confluence in transwell inserts, and treated with ET (250 ng/ml) for 24h, in the presence or absence of Rac1 inhibitor NSC23766 (50 μM). Changes in monolayer permeability were assessed by assaying the diffusion of Evans blue dye from apical to basal chamber of transwell inserts. […] Data represent mean changes in monolayer permeability from 2 independent experiments. p value indicates standard deviation.
FIGS. 3A-3H show ET-mediated Rac1 activation and actin rearrangement is dependent on an early induction of IGF-1R, PI3K and MEK signaling. […] Activation of IGF-1R in ET˜ireated and control cells was assessed by monitoring the levels of IGF-1R phosphorylated at Tyrosine 1135 and 1136 relative to total IGF-1R in whole cell lysates by western blot. ET induced a rapid (within 10 minutes), but transient activation of IGF-1R. […] Cells were fixed and stained with CellMask green to visualize cytoplasm. Cell area was quantified from 8 wells for each treatment (n-number of cells) using automated image analysis software. […] Whole cell lysates were incubated with PAK-Beads, which specifically bind to GTP-bound Rac1 . Bead bound Rac1-GTP and total Rac1 levels in cell lysate were determined by western blot with anti-Rac 1 antibody. […] Total and phosphorylated […] (Thr 308 and Ser 473), as well as those of ERK (Thr 202 and Tyr 204) was determined by western blot. ET induced a rapid (within 10-20 minutes) phosphorylation of AKT and ERK. […] Changes in monolayer to permeability were assessed by assaying the diffusion of Evans blue dye from apical to basal chamber of transwell. […] Data represent mean changes in monolayer permeability from 2 independent experiments. p value indicates standard deviation. […] Whole cell lysates were incubated with PAK-Beads, which specifically bind to GTP-hound RacL Bead bound Rac1-GTP and total Rac1 levels in cell lysate were determined by western blot with anti-Rac1 antibody.

[2] = test system: Human Brain Microvascular Endothelial cells (HBMEC); assay: Medium throughput quantification of whole cell area (CellMask green); format: cell-based; details: ET 250 ng/ml, 4 h, 8 wells per treatment (FIG. 2D, 3C)
CFL1 = assay: Western blot of total and phosphorylated CFL1 (Serine 3); format: cell-based, human; details: HBMEC
Procedure: FIGS. 4A-4I show ET induced IGF-1R, MEK and Rac1 signaling activate (dephosphorylate) the actin depolymerizing protein coflin (CFL1). […] ET induced a significant decrease in phosphorylated CFL1. (see FIG. 4B). FIG. 4B show levels of phosphorylated CFL1 relative to total CFL1 quantified from 2 independent experiments. p values indicate standard deviation. […] Total and phosphorylated CFL1 (Serine 3) levels were determined by western blot. […] (see FIG. 4D). FIG. 4D show levels of phosphorylated CFL1 relative to total CFL1 in whole cell lysates from HBMEC treated with ET in the presence or absence of IGF-1R inhibitor AG1024 and quantified from 2 independent experiments. […] Total and phosphorylated CFL1 (Serine 3) levels were determined by western blot. […] Total and phosphorylated CFL1 (Serine 3) levels were determined by western blot. […] (see FIG. 4G). FIG. 4G show levels of phosphorylated CFL1 relative to total CFL1 in whole cell lysates from HBMEC treated with ET in the presence or absence of the Rac1 inhibitor NSC23766 and quantified from 2 independent experiments. p values indicate standard deviation. […] Activation (dephosphorylation) of SSH1 in ET-treated and control cells was assessed by monitoring the levels of SSHI phosphorylated at Serine 978 relative to total SSHI in whole cell lysates by western blot. SSHI phosphorylation was reduced relative to untreated control cells at 240 min after ET treatment. […] Total and phosphorylated CFL1 (Serine 3) levels were determined by western blot.

[3] = test system: Human Brain Microvascular Endothelial cells (HBMEC); format: cell-based; details: for ET induced cortical actin rearrangement: HBMEC, 4 h; for ET-mediated actin remodeling / rearrangement: cultured endothelial cells (HBMEC), summary statement
[4] = ET 250 ng/ml, 4 h (FIG. 4C, 4E, 4I)
[5] = cultured HBMEC model, summary statement
[6] = ET 250 ng/ml, phalloidin (FIG. 3B, 3F)

SMILES | protection against ET-induced footpad swelling (edema) [1] | footpad swelling (edema) following ET injection ([1]; pre-treatment 75 mg/kg) | ET-mediated cell-cell barrier disruption (HBMEC monolayer) | footpad swelling (edema) following ET injection ([1]; pre-treatment 10 mg/kg) | protection against ET-induced footpad swelling (edema) ([1]; trihydrochloride) | ET induced Rac1 activation (Rac1-GTP) (Rac1; 4 h (FIG. 3D)) | ET induced cell area reduction [2] | ET induced CFL1 activation (dephosphorylation) (CFL1; [4]) | ET induced CFL1 activation (dephosphorylation) (CFL1; ET 50, 100 and 250 ng/ml, 4 h (FIG. 4F)) | ET induced disruption of monolayer integrity (HBMEC monolayer) | ET-mediated cell-cell barrier disruption (HBMEC monolayer; [5]) | ET induced cortical actin rearrangement ([3]; ET 250 and 500 ng/ml, Alexa 488 phalloidin (FIG. 2C)) | ET-mediated actin remodeling / rearrangement ([3]; trihydrochloride) | ET induced Rac1 activation (Rac1-GTP) (Rac1; 4 h (FIG. 3H)) | ET induced cortical actin rearrangement [3, 6] | ET-mediated actin remodeling / rearrangement [3] | footpad swelling (edema) following ET injection ([1]; pre-treatment 33 mg/kg)
CS(=O)(=O)N1CCN(Cc2cc3nc(-c4cccc5[nH]ncc45)nc(N4CCOCC4)c3s2)CC1 [GDC-0941, pictilisib] | near complete protection; also recorded: almost complete protection | consistently block | almost completely rescue |  |  |  |  |  |  |  |  |  |  |  |  |  | 
CC(C)(C)c1cc(C(=O)/C(C#N)=N/Nc2cccc(Cl)c2)no1 [ES1-09] |  |  |  | consistently block |  |  |  |  |  |  |  |  |  |  |  |  | 
CCN(CC)CCCC(C)Nc1nc(C)cc(Nc2ccc3nc(C)cc(N)c3c2)n1.Cl.Cl.Cl (stereo not shown) [NSC23766, N(6)˜[2-[[4˜(diethylamino)-1-methylbutyl]amino]-6-methyl-4-pyrimidinyl]-2-methyl-4,6-quinolinediamine trihydrochloride] |  |  |  | consistently block | near complete protection; also recorded: almost complete protection | completely rescued | significantly reduced | significantly inhibited | significantly inhibited | significantly reduced | almost completely rescue | almost completely inhibited | strongly inhibit; also recorded: almost completely rescue |  |  |  | 
CC(C)(C)c1cc(C=C(C#N)C#N)cc(Br)c1O [AG1024, 2-[(3-bromo-5˜iert-butyl-4-hydroxyphenyl)methylidene]propanedinitile] | near complete protection; also recorded: almost complete protection |  |  | consistently block |  | completely rescued | completely .rescued | significantly inhibited |  |  | almost completely rescue |  |  | significantly inhibited | almost completely inhibited | strongly inhibit; also recorded: almost completely rescue | 
O=C(NC[C@H](O)CO)c1ccncc1Nc1ccc(I)cc1F [AS703026] | near complete protection; also recorded: almost complete protection |  |  |  |  |  |  | significantly inhibited |  | significantly reduced | almost completely rescue |  |  | significantly inhibited | significantly reduced | strongly inhibit; also recorded: almost completely rescue | consistently block
